Data as given in patent US12215127B2 (priority 2020, dated 2025).

Target: Clostridium perfringens CGH (Clostridium perfringens, UniProt P54965)
Assay type: binding
Details: 0-500 μM, 37° C., 24 h, in-gel fluorescence

Clostridium perfringens CGH, sequence (P54965 whole entry, looked up): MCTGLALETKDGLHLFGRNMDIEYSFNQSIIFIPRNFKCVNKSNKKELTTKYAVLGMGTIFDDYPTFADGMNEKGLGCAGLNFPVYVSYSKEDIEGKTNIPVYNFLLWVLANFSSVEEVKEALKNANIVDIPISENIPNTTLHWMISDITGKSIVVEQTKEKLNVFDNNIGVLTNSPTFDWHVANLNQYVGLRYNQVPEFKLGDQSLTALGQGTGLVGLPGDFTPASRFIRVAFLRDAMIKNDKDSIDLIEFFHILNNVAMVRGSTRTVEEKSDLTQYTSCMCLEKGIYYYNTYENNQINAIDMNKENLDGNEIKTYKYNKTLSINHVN

With Cc1cccc(C)c1C(=O)OCC(=O)CC[C@@H](C)[C@H]1CC[C@H]2[C@@H]3[C@H](O)C[C@@H]4C[C@H](N=[N+]=[N-])CC[C@]4(C)[C@H]3CC[C@]12C [CDCA-AOMK, N3-CDCA-AOMK] the “labeling of C. perfringens BSH” value was “label Clostridium perfringens bile salt hydrolase (BSH)”.
Cc1cccc(C)c1C(=O)OCC(=O)CC[C@@H](C)[C@H]1CC[C@H]2[C@@H]3CC[C@@H]4C[C@H](N=[N+]=[N-])CC[C@]4(C)[C@H]3C[C@H](O)[C@]12C [DCA-AOMK, N3-DCA-AOMK] was tested, and the “labeling of C. perfringens BSH” value was “label Clostridium perfringens bile salt hydrolase (BSH)”.
